This passage reports GI50 and TGI results from PubChem BioAssay (NCI).

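The compound was tested at five concentrations on cells cultured in 96-well plates, with a 48-hour exposure period. GI50 marks 50% less growth. The concentration for full growth arrest is given as TGI.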

Common to all, as to test: NCI tumour cell line growth inhibition, 48 h
Assay [1] deals with NCI/ADR-RES ovarian.
For assay [2], the system named is HS 578T breast.
In assay [3] the test system is NCI-H23 lung.
For assay [4], the system named is UO-31 renal.
For assay [5], the system named is T-47D breast.
Assay [6] relates to OVCAR-8 ovarian.

For the compound `CC(C)CC(=O)Nc1n[nH]c2c1CN(C(=O)C1CCN(C)CC1)C2(C)C`, the GI50 in assay [1] is over 10 µM; in assay [2], 0.712 µM; in assay [3], 0.352 µM; in assay [4] it was over 10 µM; in assay [5], 1.59 µM; in assay [6] it was 1.3 µM. Further, the TGI in assay [1] is over 10 µM; in assay [2], over 10 µM; in assay [3], 5.4 µM; in assay [4] it was over 10 µM; in assay [5], 9.54 µM; in assay [6] it was over 10 µM.
Take `COC1=CC(=O)C(OC)=C(OC)C1=O`: the GI50 is 17.5 µM in assay [1]; 28 µM in assay [2]; 14.9 µM in assay [3]; 13 µM in assay [4]; 10.3 µM in assay [5]; 15.5 µM in assay [6]. Also, the TGI in assay [1] is 36.6 µM; in assay [2], over 100 µM; in assay [3], 30 µM; in assay [4], 26.3 µM; in assay [5], 32.2 µM; in assay [6] it was 30.7 µM.
Take `O=C(/C=N/O)Nc1cc(Cl)c(Cl)cc1Cl`: the TGI in assay [1] is over 100 µM; in assay [2], 85.5 µM; in assay [3], 86.6 µM; in assay [4] it was over 100 µM; in assay [5], 95.5 µM; in assay [6], over 100 µM.
Regarding `Cc1nccc2c3ccc(OCc4cn(-c5ccc(Cl)cc5)nn4)cc3n(CCCc3ccccc3)c12`, the GI50 was 0.644 µM in assay [1]; 0.844 µM in assay [2]; 19.7 µM in assay [3]; 0.545 µM in assay [4]; 20.6 µM in assay [5]; 1.21 µM in assay [6]. The TGI in assay [1] is 1.72 µM; in assay [2], 2.48 µM; in assay [3] it was over 33.3 µM; in assay [4], 1.37 µM; in assay [5] it was over 33.3 µM; in assay [6], 4.22 µM.
Turning to `CS(=O)(=O)Nc1cccc(-c2cc(-c3ccccc3Cl)c(C#N)c(N)n2)c1`, the GI50 in assay [1] was 0.552 µM; in assay [2] it was 0.321 µM; in assay [3], 0.651 µM; in assay [4] it was 0.984 µM; in assay [5], 0.695 µM; in assay [6] it was 1.05 µM. Also, the TGI in assay [1] is over 22.2 µM; in assay [2] it was 6.62 µM; in assay [3], 19.5 µM; in assay [4], 17.4 µM; in assay [5], 14.6 µM; in assay [6], 19.9 µM.
For the compound `CCN(CC)c1ccc2c(c1)Oc1nc(N)c(C#N)c(N)c1C2Sc1ccc(OC)cc1` (configuration not stated), the GI50 in assay [1] was 2.81 µM; in assay [2], 2.17 µM; in assay [3] it was 1.52 µM; in assay [4] it was 1.52 µM; in assay [5], 1.91 µM; in assay [6], 1.87 µM. Besides, the TGI amounted to 8.86 µM in assay [1]; 6.11 µM in assay [2]; 3.02 µM in assay [3]; 2.85 µM in assay [4]; 4.89 µM in assay [5]; 3.76 µM in assay [6].
Regarding `N#CSc1c[nH]c2ccc(/C=C/C(=O)/C=C(/C=C/c3ccc4[nH]cc(SC#N)c4c3)OB(F)F)cc12`, the GI50 is 1.74 µM in assay [1]; 1.36 µM in assay [2]; 0.947 µM in assay [3]; 0.212 µM in assay [4]; 0.791 µM in assay [5]; 0.577 µM in assay [6]. Moreover, the TGI was over 100 µM in assay [1]; over 100 µM in assay [2]; 3.86 µM in assay [3]; 0.808 µM in assay [4]; 8.6 µM in assay [5]; over 100 µM in assay [6].
On to `CC(=O)N1c2ccccc2NC2=C(C(=O)N(Cc3ccccc3)C2(C)C)C1c1ccco1` (configuration not stated), for which the GI50 was over 21.6 µM in assay [1]; 0.976 µM in assay [2]; 0.494 µM in assay [3]; 1.23 µM in assay [4]; 4.88 µM in assay [5]; 1.24 µM in assay [6]. Further, the TGI in assay [1] was over 25 µM; in assay [2], over 21.9 µM; in assay [3], over 25 µM; in assay [4], over 25 µM; in assay [5] it was over 25 µM; in assay [6], over 25 µM.
`O=C(O)c1ccc(S(=O)(=O)Nc2ccc3oc4c(c3c2)C(=O)CCC4)cc1`: the GI50 in assay [1], in assay [2], in assay [3], in assay [4], in assay [5] and in assay [6] was over 100 µM in each case. For the same compound, the TGI in assay [1], in assay [2], in assay [3], in assay [4], in assay [5] and in assay [6] was over 100 µM in each case.
Consider `O=C(O)c1cc2ccccc2c(N=Nc2cc(C(F)(F)F)ccc2Cl)c1O`, for which the TGI in assay [1], in assay [2], in assay [3], in assay [4], in assay [5] and in assay [6] was over 100 µM throughout.
In the case of `Nc1nc2cc3ccc(C4CC(O)C(CO)O4)cc3cc2c(=O)[nH]1` (configuration not stated), the GI50 is over 100 µM in assay [1]; over 100 µM in assay [2]; over 100 µM in assay [3]; 94.6 µM in assay [4]; over 100 µM in assay [5]; over 100 µM in assay [6]. Besides, the TGI in assay [1], in assay [2], in assay [3], in assay [4], in assay [5] and in assay [6] was over 100 µM throughout.
In the case of `COC(=O)NC1(NC(=O)OC)NC(=O)c2cc(OC)c(OC)c(OC)c2N1`, the TGI is 56.6 µM in assay [1]; 67.7 µM in assay [2]; over 100 µM in assay [3]; over 100 µM in assay [4]; over 100 µM in assay [5]; over 100 µM in assay [6].
For the compound `O=C(O)CCC/C=C\C[C@H]1C=CC(=O)/C1=C/C[C@@H](O)CCc1cccc(C(F)(F)F)c1`, the GI50 in assay [1] is 3.15 µM; in assay [2] it was 13.7 µM; in assay [3], 2.25 µM; in assay [4] it was 1.68 µM; in assay [5], 2.82 µM; in assay [6] it was 2.86 µM. The TGI in assay [1] came out at 29.3 µM; in assay [2], 71.2 µM; in assay [3] it was 6.37 µM; in assay [4] it was 3.16 µM; in assay [5], 17.5 µM; in assay [6] it was 11.6 µM.
For `CCCCCCCCCc1cc[n+](CC(=O)c2ccc([N+](=O)[O-])cc2)cc1`, the GI50 in assay [1] is 2.17 µM; in assay [2] it was 1.69 µM; in assay [3], 1.01 µM; in assay [4] it was 1.48 µM; in assay [5] it was 1.63 µM; in assay [6], 0.604 µM. The TGI in assay [1] turned out to be 4.92 µM; in assay [2], 4.51 µM; in assay [3], 2.56 µM; in assay [4], 2.9 µM; in assay [5], 3.64 µM; in assay [6] it was 2.13 µM.
With `Cc1cc(O)c(C2=NN(c3ccc(S(N)(=O)=O)cc3)C(c3ccc(N(C)C)cc3)C2)c(C)c1Cl` (configuration not stated), the GI50 in assay [1] is 19.3 µM; in assay [2], 23 µM; in assay [3], 17.7 µM; in assay [4], 12.7 µM; in assay [5] it was 5.72 µM; in assay [6], 27.3 µM. For the same compound, the TGI in assay [1] was 76.4 µM; in assay [2], 62.3 µM; in assay [3], 43.7 µM; in assay [4], 29.4 µM; in assay [5], 19.7 µM; in assay [6] it was over 100 µM.
For the compound `COc1cc2c3c(n(CCCNCCCNCCCNCCCN)c(=O)c2cc1OC)-c1cc2c(cc1C3=O)OCO2`, the GI50 is 1.83 µM in assay [1]; 2.78 µM in assay [2]; 1.5 µM in assay [3]; 7.39 µM in assay [4]; 2.36 µM in assay [5]; 2.19 µM in assay [6]. Moreover, the TGI in assay [1] is 3.22 µM; in assay [2] it was 8.42 µM; in assay [3], 3.86 µM; in assay [4], over 100 µM; in assay [5], over 100 µM; in assay [6], 10.8 µM.
As for `C=C1c2[nH]c3ccccc3c2C2C(CC)C1CCN2C` (configuration not stated), the TGI in assay [1], in assay [2], in assay [3], in assay [4], in assay [5] and in assay [6] was over 100 µM throughout.
With `CN1CCN(c2cc(C(=O)Nc3cc4cc(-c5cnn(C)c5)ccc4cn3)ccn2)CC1`, the GI50 is 0.246 µM in assay [1]; 0.276 µM in assay [2]; 0.111 µM in assay [3]; 0.122 µM in assay [4]; 0.0769 µM in assay [5]; 0.225 µM in assay [6]. Moreover, the TGI in assay [1] was found to be 76.4 µM; in assay [2], 6.18 µM; in assay [3], 3.29 µM; in assay [4], 0.532 µM; in assay [5], 10.5 µM; in assay [6] it was 11.7 µM.
